Test results reported in patent publication US11912790B2, “Peptide compounds and therapeutic uses of same” (Immunity Pharma Ltd., priority 2018, dated 2024).
Entries after “also recorded” stand apart in the source; their conditions may differ. No end group written: not given here.

Legend:
BALB/c mice [1] = experiment: Dexamethasone-induced spleen and thymus weight and cell count loss in mice, Example 1 (FIG. 1); assay type: in vivo, mouse; conditions: 100 μg Dexamethasone IP; for reduction of cell count loss (spleen and thymus) / reduction of the amount of dexamethasone-induced spleen and/or thymus weight loss: BALB/c mice, peptide IV 250 or 400 μg/mouse immediately and 24 h after, sacrifice at 48 h, no difference between the 2 doses
Method: The peptides described herein are capable of reducing the amount of dexamethasone-induced spleen and/or thymus weight loss in a mouse—e.g. following injection (IP) with 100 μg of Dexamethasone.
(§1) Dexamethasone is a corticosteroid medication that induces apoptosis of immune cells and lymphomyeloid tissues. BALB/c mice were used to examine the ability of candidate peptides to rescue lymphocyte cells from apoptosis. Mice were injected IP with 100 μg of Dexamethasone. Dexamethasone-treated mice received immediately following and 24-hours after dexamethasone treatment IV injection of candidate peptides (250 or 400 μg peptide/mouse). Mice were sacrificed 48 hours after the first treatment. The spleen and the thymus were weighted and full cell count of both organs was performed.

BALB/c mice [2] = experiment: Dexamethasone-induced spleen and thymus weight and cell count loss in mice, Example 2 (FIG. 2); assay type: in vivo; conditions: 100 μg Dexamethasone IP, peptide IV 200 μg/mouse immediately and 24 h after, sacrifice at 48 h
Method: as §1, with “BALB/c” for “Dexamethasone is a corticosteroid medication that induces apoptosis of immune cells and lymphomyeloid tissues. BALB/c”, “(200” for “(250 or 400”

Row | Molecule | spleen and thymus weight loss and reduction in spleen cell count induced by dexamethasone (BALB/c mice [1]; 48 h, compared to normal mice) | thymus cell count reduction induced by dexamethasone (BALB/c mice [1]; 48 h, compared to normal mice) [%] | reduction of cell count loss (spleen and thymus) (BALB/c mice [1]) | reduction of the amount of dexamethasone-induced spleen and/or thymus weight loss (BALB/c mice [1]) | reduction of the amount of dexamethasone-induced spleen and/or thymus weight loss (BALB/c mice [2])
1 | C[C@@H]1C[C@H]2[C@@H]3CCC4=CC(=O)C=C[C@]4(C)[C@@]3(F)[C@@H](O)C[C@]2(C)[C@@]1(O)C(=O)CO [Dexamethasone, reference compound] | about 50% | ~80 | – | – | –
2 | LPPLAYP [SEQ ID NO: 4] | – | – | significant effect | significant effect; also recorded: significantly reduced | –
3 | PPLAYP [SEQ ID NO: 18] | – | – | – | – | significant improvement
4 | PPLPY (not fully specified (C-terminus)) [SEQ ID NO: 3] | – | – | significant effect | significant effect; also recorded: significantly reduced | –
